Experiments:
[1] = target: T1, P-glycoprotein (ABCB1/MDR1) (Homo sapiens, UniProt P08183); test: transepithelial transport in L-MDR1 vs LLC-PK1 monolayers; type: cell-based
[2] = target: T1, P-glycoprotein (ABCB1/MDR1); test: inhibition of transepithelial DRV transport in L-MDR1 monolayers; type: cell-based

T1 sequence (P08183 whole entry): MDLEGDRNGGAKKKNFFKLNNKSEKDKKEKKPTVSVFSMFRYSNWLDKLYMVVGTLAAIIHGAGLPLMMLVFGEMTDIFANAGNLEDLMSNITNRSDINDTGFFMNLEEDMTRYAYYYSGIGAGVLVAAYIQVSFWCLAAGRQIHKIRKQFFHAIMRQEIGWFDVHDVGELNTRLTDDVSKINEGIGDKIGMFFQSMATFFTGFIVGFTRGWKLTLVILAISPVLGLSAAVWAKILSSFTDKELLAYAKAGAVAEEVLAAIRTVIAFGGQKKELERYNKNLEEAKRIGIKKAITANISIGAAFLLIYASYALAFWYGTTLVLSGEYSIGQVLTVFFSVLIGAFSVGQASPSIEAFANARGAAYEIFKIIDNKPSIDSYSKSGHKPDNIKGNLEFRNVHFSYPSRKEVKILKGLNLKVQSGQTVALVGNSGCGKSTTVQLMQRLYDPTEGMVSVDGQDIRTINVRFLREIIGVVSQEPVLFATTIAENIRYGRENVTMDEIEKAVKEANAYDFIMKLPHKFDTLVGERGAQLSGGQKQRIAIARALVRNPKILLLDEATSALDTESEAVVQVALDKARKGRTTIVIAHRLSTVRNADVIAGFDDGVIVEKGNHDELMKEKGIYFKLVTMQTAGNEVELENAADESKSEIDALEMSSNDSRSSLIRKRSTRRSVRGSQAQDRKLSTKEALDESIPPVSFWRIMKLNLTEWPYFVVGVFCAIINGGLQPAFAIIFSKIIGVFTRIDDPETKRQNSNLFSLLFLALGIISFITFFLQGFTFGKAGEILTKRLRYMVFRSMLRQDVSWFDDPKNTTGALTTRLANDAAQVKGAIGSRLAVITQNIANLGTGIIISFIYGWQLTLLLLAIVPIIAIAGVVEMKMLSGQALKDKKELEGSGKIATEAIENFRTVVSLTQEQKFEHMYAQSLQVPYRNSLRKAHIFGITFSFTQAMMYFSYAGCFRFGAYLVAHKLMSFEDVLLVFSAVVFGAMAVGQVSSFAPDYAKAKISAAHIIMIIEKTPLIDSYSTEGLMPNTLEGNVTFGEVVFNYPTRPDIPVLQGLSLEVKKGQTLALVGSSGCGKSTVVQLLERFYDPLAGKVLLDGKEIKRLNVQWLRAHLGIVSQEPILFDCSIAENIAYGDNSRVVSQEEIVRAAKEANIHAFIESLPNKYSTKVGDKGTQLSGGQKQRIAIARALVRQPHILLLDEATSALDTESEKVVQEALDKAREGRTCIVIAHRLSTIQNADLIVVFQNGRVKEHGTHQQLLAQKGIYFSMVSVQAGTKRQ

| SMILES | IC50 [1] [µM] | inhibition of transepithelial DRV transport in L-MDR1 monolayers [2] |
| --- | --- | --- |
| CC(C)CN(C[C@@H](O)[C@H](Cc1ccccc1)NC(=O)O[C@H]1CO[C@H]2OCC[C@H]21)S(=O)(=O)c1ccc(N)cc1 [DRV, Darunavir] | 121 | – |
| Cc1c(O)cccc1C(=O)N[C@@H](CSc1ccccc1)[C@H](O)CN1C[C@H]2CCCC[C@H]2C[C@H]1C(=O)NC(C)(C)C [NFV, Nelfinavir] | – | showed NFV to have a potent inhibitory effect on P-glycoprotein-mediated transport of DRV when compared to RTV and SQV |
